Results published in patent US20240287065A1, “COMPOUND AS CDK KINASE INHIBITOR AND USE THEREOF” (TYK MEDICINES (ZHENGZHOU) , INC., priority 2021, published 2024).

How the values were obtained:
[1] = molecular target: CDK6/CycD1 (Homo sapiens, UniProt Q00534); experiment: Enzyme activity test; type: biochemical;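 also: values come from the source column headed CDK6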
Description: (§1) • 1. The test compounds and pabocinib were configured into a […] solution of DMSO; • 2. 20 nL of stock solution was transferred to a 384-well plate using Echo550. DMSO was used as a blank control.
(§2) • 1. according to the following table to prepare 1.3X enzyme solution containing enzyme, substrate and cofactor; • 2. 15 μL of 1.3X enzyme solution was added to each well and the mixture was incubated for 30 min at room temperature; • 3. 5 μL of ATP solution was added to initiate the reaction. The final volume of each well was 20 μL; • 4. After incubation for 150 min at room temperature, 75 μL of termination buffer solution was added to terminate the experiment; • 5. The samples were analyzed using EZ reader.
(§3) The % inhibition was calculated using the following equation
(§4) The one treated with DMSO is the positive control (PC)
(§5) The one without enzyme is the negative control (NC)
(§6) % Inhibition=100-100*((CRPC−CRsample)/(CRPC−CRNC))

[2] = molecular target: CDK4/CycD3 (Homo sapiens, UniProt P11802); experiment: Enzyme activity test; type: biochemical;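 also: values come from the source column headed CDK4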
Description: as §1, §2, §3, §4, §5, §6

[3] = molecular target: CDK2/CycE1 (Homo sapiens, UniProt P24941); experiment: Enzyme activity test; type: biochemical;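 also: values come from the source column headed CDK2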
Description: as §1, §2, §3, §4, §5, §6

[4] = test system: T47D cells; experiment: Cell proliferation inhibition assay (MTT, 7 days); type: cell-based; conditions: Homo sapiens, 168 h, 7 days incubation
Description: (§7) MCF7, T47D, OVCAR3 and HCC1806 cells were inoculated in 96-well plates at 3000, 3000, 2500, and 2000 cells/well, respectively, and cultured overnight at 37° C., 5% C02 incubator.
(§8) 1. […] Then 2.5 μl of the stock solution was dissolved in 497.5 μl of DMSO-free medium, and then a 3-fold serial gradient dilution was performed with 0.1% DMSO medium for a total of 9 concentrations, and the concentrations of the compounds after dilution were as follows: • 10000 nM, 3333.33 nM, 1111.11 nM, 370.34 nM, 123.45 nM, 41.15 nM, 13.72 nM, 4.57 nM, and 1.52 nM. • b) After fully mixing, 20 μL of compound solutions were added into cell culture plates containing 80 μL of cells respectively, with 4 replicate wells for each concentration. • c) The cells were transferred to an incubator and incubated for 7 days, and exchanged with fresh culture medium containing the same concentration of compounds when incubated to day 4. 2. MTT assay • a) The cell culture plate was taken out and 10 μL of 5 mg/ml MTT was added to the hood. • b) The cell culture plate was put back into the incubator and continued to incubate for 3 hours. • c) The cell culture plate was taken out to remove the culture medium, and 100 μL of isopropanol (0.4 mMHCl, 0.4% NP40) was added to the plate, and the plate was shaken on a shaker at room temperature for 30 minutes and read at 570 nm. 3. Data analysis
(§9) The survival rate (% Cell Survival) was calculated using the following equation:
(§10) % Cell Survival=100%×(OD_Sample−OD_LCave)/(OD_HC−OD_LCave) • OD_HC: 0.1‰ cell readings of DMSO control • OD_Sample: cell readings of compound addition • OD_LC: readings of blank medium • Analyed by Prizm: Dose-response-Inhibition Log(inhibitor) vs response (three parameters for the best fit)
(§11) IC50 (nM) values were calculated by concentration-response curve fitting.

[5] = test system: OVCAR3 cells; experiment: Cell proliferation inhibition assay (MTT, 7 days); type: cell-based; conditions: Homo sapiens, OVCAR-3, 168 h, 7 days incubation
Description: as §7, §8, §9, §10, §11

[6] = test system: HCC1806 cells; experiment: Cell proliferation inhibition assay (MTT, 7 days); type: cell-based; conditions: Homo sapiens, HCC1806, 168 h, HCC1086 [sic], 7 days incubation
Description: as §7, §8, §9, §10, §11

[7] = test system: MCF7 cells; experiment: Cell proliferation inhibition assay (MTT, 7 days); type: cell-based; conditions: Homo sapiens, 168 h, 7 days incubation
Description: as §7, §8, §9, §10, §11

Sequence of CDK4/CycD3 (P11802 whole entry, species assumed): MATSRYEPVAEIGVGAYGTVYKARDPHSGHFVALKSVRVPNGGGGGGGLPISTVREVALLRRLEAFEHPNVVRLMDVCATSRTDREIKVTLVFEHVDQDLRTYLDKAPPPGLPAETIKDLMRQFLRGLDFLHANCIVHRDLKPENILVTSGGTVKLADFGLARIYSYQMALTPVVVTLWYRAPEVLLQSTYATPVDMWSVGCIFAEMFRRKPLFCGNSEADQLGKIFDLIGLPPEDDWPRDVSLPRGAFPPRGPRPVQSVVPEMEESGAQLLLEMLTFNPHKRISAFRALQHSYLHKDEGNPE
Sequence of CDK4/CycD3 (P30281 whole entry partner, species assumed): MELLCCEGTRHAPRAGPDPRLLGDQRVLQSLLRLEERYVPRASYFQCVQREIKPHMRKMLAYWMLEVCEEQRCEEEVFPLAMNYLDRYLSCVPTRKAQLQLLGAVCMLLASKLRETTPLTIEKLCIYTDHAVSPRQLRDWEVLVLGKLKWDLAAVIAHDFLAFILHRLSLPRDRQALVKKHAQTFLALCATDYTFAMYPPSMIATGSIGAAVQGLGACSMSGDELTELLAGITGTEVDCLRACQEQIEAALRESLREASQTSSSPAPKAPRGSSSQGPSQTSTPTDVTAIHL
Sequence of CDK6/CycD1 (Q00534 whole entry, species assumed): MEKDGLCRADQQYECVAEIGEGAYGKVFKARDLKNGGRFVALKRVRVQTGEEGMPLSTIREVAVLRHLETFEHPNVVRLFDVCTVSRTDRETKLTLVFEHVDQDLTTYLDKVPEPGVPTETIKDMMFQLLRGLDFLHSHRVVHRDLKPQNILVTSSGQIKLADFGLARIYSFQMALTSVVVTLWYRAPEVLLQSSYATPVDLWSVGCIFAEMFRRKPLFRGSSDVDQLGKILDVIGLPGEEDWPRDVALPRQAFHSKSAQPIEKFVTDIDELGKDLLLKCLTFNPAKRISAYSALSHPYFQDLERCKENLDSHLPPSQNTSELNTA
Sequence of CDK6/CycD1 (P24385 whole entry partner, species assumed): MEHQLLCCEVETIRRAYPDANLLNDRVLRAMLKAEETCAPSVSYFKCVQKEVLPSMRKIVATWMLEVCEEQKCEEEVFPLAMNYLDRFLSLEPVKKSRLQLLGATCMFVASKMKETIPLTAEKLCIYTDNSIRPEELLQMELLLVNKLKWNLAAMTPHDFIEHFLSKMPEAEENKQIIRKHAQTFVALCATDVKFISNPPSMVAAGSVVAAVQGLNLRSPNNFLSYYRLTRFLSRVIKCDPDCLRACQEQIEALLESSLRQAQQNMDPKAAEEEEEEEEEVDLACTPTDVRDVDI

Structure (SMILES)	IC50 [1]	IC50 [2]	IC50 [3]	IC50 [4]	IC50 [5]	IC50 [6]	IC50 [7]
C[C@@]1(O)CCC[C@H]1n1c(=O)c(C2COC2)cc2cnc(NC3CCN(S(C)(=O)=O)CC3)nc21 [Example 1]	10 to 100 nM	10 to 100 nM	< 10 nM	–	–	–	–
C[C@@]1(O)CCC[C@H]1n1c(=O)c(OC(F)F)cc2cnc(NC3CCN(S(=O)(=O)c4ccc(C(F)(F)F)cc4)CC3)nc21 [Example 5]	< 10 nM	10 to 100 nM	< 10 nM	≤ 50 nM	50 to 5200 nM	50 to 5200 nM	50 to 5200 nM
CCCS(=O)(=O)N1CCC(Nc2ncc3cc(OC(F)F)c(=O)n([C@@H]4CCC[C@@]4(C)O)c3n2)CC1 [Example 30]	–	–	–	50 to 5200 nM	50 to 5200 nM	50 to 5200 nM	50 to 5200 nM
C[C@@]1(O)CCC[C@H]1n1c(=O)c(OC(F)F)cc2cnc(NC3CCN(S(=O)(=O)CCC#N)CC3)nc21 [Example 33]	–	–	< 10 nM	50 to 5200 nM	50 to 5200 nM	200 to 51000 nM	50 to 5200 nM
CCOc1ccc(S(=O)(=O)N2CCC(Nc3ncc4cc(OC(F)F)c(=O)n([C@@H]5CCC[C@@]5(C)O)c4n3)CC2)cc1 [Example 34]	–	–	–	≤ 50 nM	≤ 50 nM	≤ 50 nM	≤ 50 nM
COc1ccc(S(=O)(=O)N2CCC(Nc3ncc4cc(OC(F)F)c(=O)n([C@@H]5CCC[C@@]5(C)O)c4n3)CC2)cn1 [Example 36]	–	< 10 nM	< 10 nM	≤ 50 nM	≤ 50 nM	≤ 50 nM	≤ 50 nM
CCn1cc(S(=O)(=O)N2CCC(Nc3ncc4cc(OC(F)F)c(=O)n([C@@H]5CCC[C@@]5(C)O)c4n3)CC2)cn1 [Example 39]	–	–	–	–	–	≤ 50 nM	≤ 50 nM
C[C@@]1(O)CCC[C@H]1n1c(=O)c(OC(F)F)cc2cnc(NC3CCN(S(=O)(=O)CCC(F)(F)F)CC3)nc21 [Example 40]	–	< 10 nM	< 10 nM	50 to 5200 nM	≤ 50 nM	50 to 5200 nM	–
C[C@@]1(O)CCC[C@H]1n1c(=O)c(OC(F)F)cc2cnc(NC3CCN(S(=O)(=O)C4CCC4)CC3)nc21 [Example 42]	–	< 10 nM	< 10 nM	≤ 50 nM	≤ 50 nM	50 to 5200 nM	≤ 50 nM
CCS(=O)(=O)N1CCC(Nc2ncc3cc(OC(F)F)c(=O)n([C@@H]4CCC[C@@]4(C)O)c3n2)CC1 [Example 44]	–	< 10 nM	< 10 nM	≤ 50 nM	≤ 50 nM	50 to 5200 nM	≤ 50 nM
C[C@@]1(O)CCC[C@H]1n1c(=O)c(OC(F)F)cc2cnc(N[C@@H]3CCOC[C@H]3O)nc21 [Example 45]	–	10 to 100 nM	10 to 100 nM	–	–	–	–
C[C@@]1(O)CCC[C@H]1n1c(=O)c(OC(F)F)cc2cnc(NC3CCN(S(=O)(=O)C4CC(F)(F)C4)CC3)nc21 [Example 46]	–	< 10 nM	< 10 nM	≤ 50 nM	≤ 50 nM	50 to 5200 nM	≤ 50 nM
C[C@@]1(O)CCC[C@H]1n1c(=O)c(OC(F)F)cc2cnc(NC3CCN(S(=O)(=O)C4CCCC4)CC3)nc21 [Example 48]	–	< 10 nM	< 10 nM	50 to 5200 nM	≤ 50 nM	50 to 5200 nM	50 to 5200 nM
C[C@@]1(O)CCC[C@H]1n1c(=O)c(OC(F)F)cc2cnc(NC3CCN(S(=O)(=O)C4CCC(=O)CC4)CC3)nc21 [Example 53]	–	–	–	50 to 5200 nM	≤ 50 nM	200 to 51000 nM	200 to 51000 nM
C[C@@]1(O)CCC[C@H]1n1c(=O)c(OC(F)F)cc2cnc(NC3CCN(S(=O)(=O)C4CCC(F)(F)CC4)CC3)nc21 [Example 54]	–	10 to 100 nM	< 10 nM	50 to 5200 nM	≤ 50 nM	200 to 51000 nM	–
C[C@@]1(O)CCC[C@H]1n1c(=O)c(OC(F)F)cc2cnc(NC3CCN(S(=O)(=O)C4CCC(O)CC4)CC3)nc21 (some centres unmarked) [Example 56]	–	–	–	50 to 5200 nM	200 to 51000 nM	200 to 51000 nM	50 to 5200 nM
C[C@@]1(O)CCC[C@H]1n1c(=O)c(OC(F)F)cc2cnc(NC3CCN(C(=O)C(F)(F)F)CC3)nc21 [Example 57]	–	–	–	200 to 51000 nM	200 to 51000 nM	200 to 51000 nM	–
C[C@@]1(O)CCC[C@H]1n1c(=O)c(OC(F)F)cc2cnc(NC3CCN(S(=O)(=O)c4cccc(Cl)c4)CC3)nc21 [Example 59]	–	–	–	50 to 5200 nM	50 to 5200 nM	50 to 5200 nM	50 to 5200 nM
CN1CCC(c2ccc(Nc3ncc4cc(OC(F)F)c(=O)n([C@@H]5CCC[C@@]5(C)O)c4n3)cc2)CC1 [Example 61]	< 10 nM	< 10 nM	10 to 100 nM	–	–	–	–
CN1CCN(c2ccc(Nc3ncc4cc(OC(F)F)c(=O)n([C@@H]5CCC[C@@]5(C)O)c4n3)cc2)CC1 [Example 63]	–	–	–	50 to 5200 nM	≤ 50 nM	50 to 5200 nM	≤ 50 nM
CN([C@H]1CC[C@H](Nc2ncc3cc(OC(F)F)c(=O)n([C@@H]4CCC[C@@]4(C)O)c3n2)CC1)S(C)(=O)=O [Example 69]	10 to 100 nM	10 to 100 nM	< 10 nM	–	–	–	–

The remaining lines, values ahead:

IC50 [1]	IC50 [2]	IC50 [3]	IC50 [4]	IC50 [5]	IC50 [6]	IC50 [7]	Structure (SMILES)
–	–	–	50 to 5200 nM	50 to 5200 nM	200 to 51000 nM	200 to 51000 nM	C[C@@]1(O)CCC[C@H]1n1c(=O)c(OC(F)F)cc2cnc(NC3CCN(S(=O)(=O)c4cccc(C(F)(F)F)c4)CC3)nc21 [Example 20]
–	–	–	50 to 5200 nM	50 to 5200 nM	200 to 51000 nM	200 to 51000 nM	C[C@@]1(O)CCC[C@H]1n1c(=O)c(OC(F)F)cc2cnc(NC3CCN(S(=O)(=O)c4cc(F)c(F)cc4F)CC3)nc21 [Example 21]
–	< 10 nM	< 10 nM	≤ 50 nM	≤ 50 nM	≤ 50 nM	≤ 50 nM	[2H]C([2H])([2H])Oc1ccc(S(=O)(=O)N2CCC(Nc3ncc4cc(OC(F)F)c(=O)n([C@@H]5CCC[C@@]5(C)O)c4n3)CC2)cc1 [Example 31]
–	< 10 nM	< 10 nM	≤ 50 nM	≤ 50 nM	≤ 50 nM	–	COc1ncccc1S(=O)(=O)N1CCC(Nc2ncc3cc(OC(F)F)c(=O)n([C@@H]4CCC[C@@]4(C)O)c3n2)CC1 [Example 37]
–	–	–	–	–	50 to 5200 nM	≤ 50 nM	C[C@@]1(O)CCC[C@H]1n1c(=O)c(OC(F)F)cc2cnc(NC3CCN(S(=O)(=O)CC#N)CC3)nc21 [Example 38]
–	–	–	50 to 5200 nM	50 to 5200 nM	200 to 51000 nM	–	C[C@@]1(O)CCC[C@H]1n1c(=O)c(OC(F)F)cc2cnc(NC3CCN(S(=O)(=O)C4CCCCC4)CC3)nc21 [Example 49]
–	–	–	≤ 50 nM	50 to 5200 nM	50 to 5200 nM	≤ 50 nM	C[C@@]1(O)CCC[C@H]1n1c(=O)c(OC(F)F)cc2cnc(NC3CCN(S(=O)(=O)C4CCC(F)CC4)CC3)nc21 (some centres unmarked) [Example 55]
–	–	–	50 to 5200 nM	50 to 5200 nM	200 to 51000 nM	50 to 5200 nM	C[C@@]1(O)CCC[C@H]1n1c(=O)c(OC(F)F)cc2cnc(NC3CCN(S(=O)(=O)c4ccc(Cl)cc4)CC3)nc21 [Example 58]
–	–	–	≤ 50 nM	≤ 50 nM	≤ 50 nM	≤ 50 nM	CN1CCN(c2ccc(Nc3ncc4cc(OC(F)F)c(=O)n([C@@H]5CCC[C@@]5(C)O)c4n3)nc2)CC1 [Example 60]
< 10 nM	10 to 100 nM	< 10 nM	50 to 5200 nM	≤ 50 nM	50 to 5200 nM	–	C[C@@]1(O)CCC[C@H]1n1c(=O)c(OC(F)F)cc2cnc(NC3CCN(S(=O)(=O)N4CCOCC4)CC3)nc21 [Example 66]
